According to patent US9253997B2, “Alkylamine derivative” (AJINOMOTO CO., INC., priority 2010, dated 2016):

Tests used:
[1] = system: serum iPTH; experiment: Effect of decreasing iPTH in rat by single dose of intravenous administration; format: in vivo; details: male SD (IGS) rat, 0.1 mg/kg, compared with cinacalcet
Experimental: (Method) A single dose was given to male SD (IGS) rat under pentobarbital anesthesia from a tail vein to examine the transition of serum iPTH and serum Ca concentration. Blood was taken before the administration and 5, 15, 30 and 60 minutes after the administration.
Compound No. 1 (the compound described in Example 6) was dissolved in physiological saline. Meanwhile, cinacalcet as a control substance was dissolved in PEG400: Saline=1:1 solution.

[2] = system: NSAID-induced small intestine inflammation; experiment: Effect against NSAID-induced small intestine inflammation; format: in vivo, rat; details: 30 minutes before loxoprofen 60 mg/kg oral, 24 hours
Experimental: (Method) To a non-fasting rat, Compound No. 1 or 2 (the compound described in Example 14) (10 mg/kg) or Compound No. 3 (the compound described in Example 48) (3, 10 or 30 mg/kg) was orally administered. After 30 minutes, loxoprofen (60 mg/kg) was orally administered and the rat was left for 24 hours. Thirty minutes before the autopsy, 1 ml of 1% (w/w) Evansblue dye was intravenously administered to the rat. The small intestine (from duodenum to ileum) of the animal euthanized under deep ether anesthesia was isolated and immersed in 2% formalin for 10 minutes to fix the small intestine from the serosa side. The small intestine was dissected from the opposite side of the mesentery to measure the injury area (mm^2) thereof under a 10× dissecting microscope. T-test or Dunnett's test was employed as the statistical test where p<0.05 was considered to indicate significant difference.

[3] = system: large intestine loop; experiment: Water absorption action using rat colon loop technique; format: in vivo; details: male SD (IGS) rat colon loop, PGE2 4 μg/ml/kg i.p., compound in Tyrode's solution injected into loop, 1 hour; FIGS. 5-8
Experimental: (Method) Appendix and large intestine were isolated from a male SD (IGS) rat under pentobarbital anesthesia, which were ligated 5 cm below the appendix to prepare a large intestine loop. Immediately after loop preparation, PGE2 (4 μg/ml/kg, SIGMA) was intraperitoneally administered. Thirty minutes later, 2 ml of Tyrode's solution (NaCl 136.9 mM, KCl 2.7 mM, CaCl2.2H2O 1.8 mM, MgCl2.6H2O 1.04 mM, NaH2PO4.2H2O 0.04 mM, NaH2PO4.2H2O 0.04 mM, Glucose 5.55 mM, NaHCO3 11.9 mM) was injected into the prepared loop. An hour later, weight of the loop, weight of the loop after removing the fluid therefrom and the loop area were measured to calculate the weight of liquid remaining in the loop per unit area.
The above-described Compounds Nos. 1-3 and Compound No. 4 (the compound described in Example 47) were used as the test compounds while the agents were dissolved in Tyrode's solution. Remaining liquid measure per unit area (g/cm^2)=(weight of loop−weight of loop after removing fluid therefrom)/loop area.
Water absorption was assessed by calculating water regulating effect (%) according to the following formula. Water regulating effect (%)=100−(remaining liquid measure per unit area obtained with agent−average remaining liquid measure per base unit area)/(remaining liquid measure per unit area obtained with vehicle−average remaining liquid measure per base unit area)×100.

[4] = molecular target: human CaSR (Homo sapiens (Human), UniProt P41180); experiment: Assessment of CaSR agonistic activity (FLIPR Ca2+ fluorescence); format: cell-based; details: 293E cells transfected with hCaSR/pcDNA3.1, Calcium 4 Assay Kit, 1.5 mM CaCl2 assay buffer
Experimental: CaSR gene was prepared according to the method described in Example 1 of WO07/55393. The resulting recombinant plasmid was used to generate human CaSR-expressing plasmid hCaSR/pcDNA3.1.
293E cells (EBNA1-expressing IIEK293 cells, ATCC No. CRL-10852) were cultured in DMEM ([…] Glucose-containing Dulbecco's modified Eagle medium, Nacalai Tesque) containing 10% bovine fetal serum in the presence of 250 μg/ml of G418. The cells were seeded on a 10 cm-diameter petri dish at 1.8×10^6 cells/15 ml, and left to stand in a CO2 incubator (5% CO2, 37° C.) for 24 hours. Thereafter, human CaSR expression plasmid hCaSR/pcDNA3.1 was transfected with transfection reagent Mirus Trans IT 293 (Takara Bio). Following static culture in a CO2 incubator for 24 hours, the cells were harvested with 10% bovine fetal serum-containing DMEM and seeded on a poly-D-lysine coat 384 well plate (Falcon) at 15,000 cells/well. Following static culture in a CO2 incubator for 24 hours, the medium was removed and the resultant was added with 50 μl/well of Ca^2+ fluorescent indicator Calcium 4 Assay Kit (Molecular Devices) dissolved in an assay buffer (146 mM NaCl, 5 mM KCl, 1 mM MgSO4, 1 mg/ml Glucose, 20 mM HEPES (PH 7.2), 1.5 mM CaCl2), and left to stand at 37° C. for an hour and then at room temperature for 30 minutes to allow intake of the indicator. The above-mentioned 384-well plate was transferred to FLIPR (Molecular Devices) and added with 12.5 μl/well of a compound dissolved in a 0.1% BSA-containing assay buffer to measure 3-minute change in the fluorescence intensity.
The difference between maximum and minimum fluorescence intensities before and after compound addition (RFU (Max-Min)) was determined by FLIPR automatic calculation. An activity rate was calculated where RFU (Max-Min) upon addition of a compound at a maximum concentration was defined 100% and RFU (Max-Min) upon addition of DMSO as a substitute for the compound at the same concentration was defined 0%. […]

[5] = non-fasting rat, 10 mg/kg oral, FIG. 3

Chain of human CaSR (P41180 20-1078): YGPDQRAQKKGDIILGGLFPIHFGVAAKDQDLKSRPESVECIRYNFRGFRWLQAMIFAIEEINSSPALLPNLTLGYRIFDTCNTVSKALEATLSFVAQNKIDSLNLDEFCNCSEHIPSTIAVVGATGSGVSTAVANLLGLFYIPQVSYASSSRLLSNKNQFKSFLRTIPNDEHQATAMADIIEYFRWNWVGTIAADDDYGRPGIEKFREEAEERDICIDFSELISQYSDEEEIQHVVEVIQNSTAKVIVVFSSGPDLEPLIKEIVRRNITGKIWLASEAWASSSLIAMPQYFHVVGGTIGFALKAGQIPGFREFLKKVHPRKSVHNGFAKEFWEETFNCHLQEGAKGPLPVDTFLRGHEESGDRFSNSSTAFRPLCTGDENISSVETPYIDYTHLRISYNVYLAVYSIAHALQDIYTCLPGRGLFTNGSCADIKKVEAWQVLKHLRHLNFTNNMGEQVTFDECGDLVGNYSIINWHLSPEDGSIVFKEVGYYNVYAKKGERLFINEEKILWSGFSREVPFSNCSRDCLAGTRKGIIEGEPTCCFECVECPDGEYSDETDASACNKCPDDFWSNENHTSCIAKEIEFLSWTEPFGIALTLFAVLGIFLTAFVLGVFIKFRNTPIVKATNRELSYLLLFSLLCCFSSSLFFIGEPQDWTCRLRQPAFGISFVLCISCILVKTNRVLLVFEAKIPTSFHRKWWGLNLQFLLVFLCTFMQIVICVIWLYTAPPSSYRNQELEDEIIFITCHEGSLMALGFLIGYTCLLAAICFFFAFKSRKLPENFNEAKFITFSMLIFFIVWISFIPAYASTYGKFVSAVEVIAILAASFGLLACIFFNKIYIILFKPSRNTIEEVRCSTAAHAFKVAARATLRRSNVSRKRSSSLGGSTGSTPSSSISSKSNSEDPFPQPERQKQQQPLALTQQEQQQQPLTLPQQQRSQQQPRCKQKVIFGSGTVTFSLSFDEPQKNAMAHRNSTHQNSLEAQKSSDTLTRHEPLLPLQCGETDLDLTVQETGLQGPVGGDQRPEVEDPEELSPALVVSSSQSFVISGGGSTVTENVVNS

**Q.** For `N[C@@H](CNC(=O)Nc1cc(Cl)cc(S(=O)(=O)O)c1O)C(=O)O` [Example 6, (2S)-2-amino-3-{[(5-chloro-2-hydroxy-3-sulfophenyl)carbamoyl]amino}propanoic acid], which “decreasing serum iPTH” value ([1]; FIG. 1) is on record?
**A.** Its value is “almost the same effect as cinacalcet”.

**Q.** And the “decreasing serum Ca” value ([1]; FIG. 2)?
**A.** The value was “almost the same effect as cinacalcet”.

**Q.** And the “injury area of small intestine” value [2, 5]?
**A.** The value was “significantly improved the injury area”.

**Q.** And the “water absorption (water regulating effect)” value (“water absorption” below) [3]?
**A.** Its value is “promoted water absorption in a dose-depending manner”.

**Q.** What does the source list for `Cc1c(Cl)cc(S(=O)(=O)O)cc1NC(=O)NC[C@H](N)C(=O)O` [Example 14, (2S)-2-amino-3-{[(3-chloro-2-methyl-5-sulfophenyl)carbamoyl]amino}propanoic acid]?
**A.** EC50 [4]: 0.003 µM; injury area of small intestine [2, 5]: showed a tendency to improve the injury area; water absorption (water regulating effect) [3]: promoted water absorption in a dose-depending manner

**Q.** For `Cc1c(Cl)cc(S(=O)(=O)O)cc1NC(=S)NC[C@H](N)C(=O)O` [Example 47, (2S)-2-amino-3-{[(3-chloro-2-methyl-5-sulfophenyl)carbamothioyl]amino}propanoic acid], which “water absorption” value [3] is on record?
**A.** The value was “promoted water absorption in a dose-depending manner”.

**Q.** With `Cc1c(Cl)cc(NC(=S)NC[C@H](N)C(=O)O)cc1S(=O)(=O)O` [Example 48, (2S)-2-amino-3-{[(3-chloro-4-methyl-5-sulfophenyl)carbamothioyl]amino}propanoic acid] as the molecule, how does the “injury area of small intestine” value ([2]; non-fasting rat, 3, 10 or 30 mg/kg oral, FIG. 4) read?
**A.** The value was “showed a tendency to improve the injury area”.

**Q.** What about the “water absorption” value [3] of the same molecule?
**A.** Its value is “promoted water absorption in a dose-depending manner”.

**Q.** How did the EC50 [4] turn out when `N[C@@H](CCC(=O)Nc1cc(Cl)cc(S(=O)(=O)O)c1O)C(=O)N1CCOCC1` [Example 58, 3-[(4S)-4-amino-5-(morpholine-4-yl)-5-oxopentanamide]-5-chloro-2-hydroxybenzene-1-sulfonic acid] was run?
**A.** The EC50 was 3.1 µM.

**Q.** For `N[C@@H](CCC(=O)Nc1cc(Cl)cc(S(=O)(=O)O)c1O)C(=O)NC1CCCCCC1` [Example 60, 3-[(4S)4-amino-4-(cycloheptylcarbamoyl)butanamide]-5-chloro-2-hydroxybenzene-1-sulfonic acid], which EC50 [4] is on record?
**A.** The EC50 was 3.4 µM.
